From ChEMBL document CHEMBL1144870 (J Med Chem, 2003)

Target: T1, Hypoxanthine-guanine phosphoribosyltransferase (Homo sapiens, UniProt P00492)
T1 sequence (P00492 whole entry): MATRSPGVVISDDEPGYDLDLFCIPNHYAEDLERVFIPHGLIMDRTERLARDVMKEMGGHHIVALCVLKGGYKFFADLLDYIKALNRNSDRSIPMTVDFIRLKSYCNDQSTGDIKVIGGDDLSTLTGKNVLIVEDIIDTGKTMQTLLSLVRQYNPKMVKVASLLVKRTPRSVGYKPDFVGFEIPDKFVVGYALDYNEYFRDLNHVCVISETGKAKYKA
Experiment: Kinetic inhibition constant of compound with human Hypoxanthine Phosphoribosyltransferase (HPRT)

SMILES: O=C(Nc1cc2c3ccccc3ccc2c2ccccc12)C(Cl)Cl
- Ki: 16 µM
